The text below walks through data of article PMC11002875, “Linking triphenylphosphonium cation to a bicyclic hydroquinone improves their antiplatelet effect via the regulation of mitochondrial function” (Redox Biology, 2024).

Like-named read-outs stand apart in the source and are kept apart here. Where only a bound is given, the exact number is not on record here.

The subject of data set [1] is Washed platelets. Description: Platelet aggregation in washed platelets (aggregometer). The data set is classed as cell-based, Human. The note with it: washed platelets. The protocol: (§1) Human platelet purification. The blood sample was obtained from voluntary donors (10 days without antiplatelet medication) who agreed to participate after signing informed consent (Scientific Ethics Committee of the University of Talca N° 04–2022). Briefly, blood anticoagulated with acid-citrate-dextrose (ACD) was obtained in a 4:1 v/v ratio. The sample was centrifuged for 12 min at 250 g to obtain platelet-rich plasma (PRP). Subsequently, the PRP was centrifuged for 8 min at 900 g to obtain the platelet pellet. The plasma supernatant was removed, and the platelets were resuspended in Tyrodes buffer without calcium plus ACD in a ratio of 5:1 v/v. The platelets were centrifuged once more for 8 min at 900 g and the pellet was resuspended in Tyrodes buffer without calcium. Finally, the platelets were counted (Mindray BC-3000 Plus hematology counter, Japan), adjusted to the desired concentration, and used within 3 h.
Platelet aggregation. Washed platelets (200-250 × 10^6 platelets/mL) were preincubated with 2 mM CaCl2 and then with the compounds under study for 5 min at 37 °C in the aggregometer (Agg RAM- Helena Biosciences). Aggregation was initiated with the agonists: collagen 2 μg/mL; convulxin 20 ng/mL; TRAP-6 (Thrombin receptor activator peptide 6) 5 μM; PMA (Phorbol myristate acetate) 100 nM or arachidonic acid 250 μg/mL. The aggregation curve was evaluated for 5 min at 37 °C in shaking at 1000 rpm.

Data set [2] relates to Washed platelets. Description: Intraplatelet (cytosolic) ROS levels (DHE). Conditions: compounds 1, 5 and 10 μM, 10 min. The format is cell-based, Human. How it is done:
as §1
Intraplatelet ROS levels. Washed platelets (50 × 10^6 platelets/mL) were labeled with the dihydroethidium (DHE) probe 10 μM and incubated for 20 min at 37 °C protected from light. After, compounds (1, 5, and 10 μM) were added to the platelets and incubated for 10 min at 37 °C. The sample was acquired in the BD Facs Lyric flow cytometer (BD Biosciences, USA). Representative dot plots are available in Supplementary Figs. 18 and 27. As a positive control for ROS, antimycin A 20 μM was used.

Data set [3] concerns Washed platelets. The experiment in a line: Mitochondrial membrane potential (TMRM). The format is cell-based, Human. Conditions: compounds 1, 5 and 10 μM, 20 min. How it is done: as §1
Mitochondrial membrane potential (ΔΨm). Washed platelets (50 × 10^6 platelets/mL) were labeled with a 100 nM tetramethylrhodamine methyl ester (TMRM) probe and incubated with compounds (1, 5 and 10 μM) for 20 min at 37 °C. The sample was acquired in the BD Facs Lyric flow cytometer (BD Biosciences, USA). Representative dot plots are available in Supplementary Figs. 12, 24, and 25. Carbonyl cyanide 4-(trifluoromethoxy) phenylhydrazone (FCCP) 1 μM was used as a control for decreasing the mitochondrial membrane potential.

Data set [4] has as its system Washed platelets. The experiment in a line: Intraplatelet calcium levels (Fluo-4-AM). The data set is classed as cell-based, Human. The note with it: compounds 1, 5 and 10 μM, 10 min. How it is done: as §1
Intraplatelet calcium levels. Washed platelets (200-250 × 10^6 platelets/mL) were labeled Fluo-4-AM probe with 0.5 μM and incubated for 20 min at room temperature protected from light. Subsequently, platelets were adjusted to a count of 50 × 10^6 platelets/mL, and compounds (1, 5, and 10 μM) were added and incubated for 10 min at 37 °C. The sample was acquired in the BD Facs Lyric flow cytometer (BD Biosciences, USA). Representative dot plots are available in Supplementary Figs. 13 and 26. As a control for increased intracellular calcium, P-trifluoromethoxyphenylhydrazone carbonylcyanide (FCCP) 1 μM was used.

For data set [5], the system named is Washed platelets. The experiment in a line: Platelet activation markers in washed platelets (flow cytometry). The format is cell-based, Human. Conditions: collagen 2 μg/mL; compounds 1, 5 and 10 μM; vs activated control. The protocol: as §1
Platelet activation markers. Washed platelets (200-250 × 10^6 platelets/mL) were incubated with the compounds (1, 5 and 10 μM), then activated with collagen 2 μg/mL and incubated for 5 min at 37 °C. Aliquots of the reaction were then collected and labeled separately with human antibodies (BD Biosciences, San José, CA, USA) for P-selectin, CD63, activated GPIIb/IIIa (PAC-1), and fibrinogen to assess the levels of each marker on the platelet membrane. The sample was acquired using the BD Facs Lyric flow cytometer (BD Biosciences, USA). Representative dot plots are available in Supplementary Figures 8-11 and 20-23. In the case of the activation markers P-selectin and bound fibrinogen in PRP, the same procedure for washed platelets was performed with representative dot plots available in Supplementary Figs. 15 and 16. The platelet population was identified with anti-CD61-PE or anti-CD61-FITC (BD Biosciences, San José, CA, USA).
(A flow cytometer gives signals particle by particle.)

The test system of data set [6] is platelets. Description: Oxygen consumption and extracellular acidification rate (Seahorse XFe24). Conditions: 10 µM. The data set is classed as cell-based, Human. How it is done:
as §1
Oxygen consumption and extracellular acidification rate. Oxygen consumption rate (OCR) and extracellular acidification rate (ECAR) were measured with a Seahorse XFe24 extracellular flux analyzer (Agilent, Santa Clara, CA, USA). Briefly, 100 μL of platelets washed in modified Tyrode-HEPES buffer were deposited (20–25 × 10^6 cells/well) and then centrifuged at 300 g for 10 min. Platelets were incubated with NP4 10 μM for 5 min, and then Tyrode's-HEPES buffer was removed and Seahorse medium (8.3 g/L DMEM, 1.85 g/L NaCl, 5 mM glucose, 1 mM pyruvate, 2 mM glutamine, 5 mM HEPES, pH 7.4) was added to a final volume of 600 μL [70]. OCR was measured before and after the sequential addition of 3 μg/mL collagen, 2.5 μM oligomycin, 1.4 μM FCCP, and 2 μM/2 μM antimycin A/rotenone. Non-mitochondrial OCR was subtracted from all measurements. Respiratory parameters obtained with Mito Stress Test (Supplementary Table 1) were calculated as follows: Baseline (baseline OCR), collagen (OCR after collagen addition), activation (collagen-basal), ATP-independent or proton leak (OCR resistant to oligomycin addition), ATP-linked respiration (basal-proton leak), maximum (OCR obtained after addition of FCCP), and spare (maximal-basal), coupling efficiency (OCR Basal – OCR ATP-indep)/OCR Basal). Respiratory parameters were calculated according to Refs. [66, 70, 73].

For data set [7], the system named is Washed platelets. Description: Cellular cytotoxicity by release of lactate dehydrogenase (LDH). The data set is classed as cell-based, Human. The note with it: screening at 10–100 μM. The protocol: as §1
Cellular cytotoxicity by the release of lactate dehydrogenase (LDH). Washed platelets (200-250 × 10^6 platelets/mL) were incubated with the compounds under study or vehicle for 15 min at 37 °C. Then, the platelets were centrifuged at 900 g for 8 min to collect the supernatant. […] The absorbance was analyzed at 490 nm (Microplate Reader Thermo Scientific Multiskan Go, Finland).

Setting [8] is: Homo sapiens, Platelet, PMA 100 nM, read-out: IC50 for platelet aggregation, PMA.
Setting [9] is: Homo sapiens, Platelet, TRAP-6 5 μM, read-out: IC50 for platelet aggregation, TRAP-6.
The mark [10] stands for this setting: Homo sapiens, Platelet, arachidonic acid 250 μg/mL, read-out: IC50 for platelet aggregation, Arachidonic Acid.
[11] abbreviates: Homo sapiens, Platelet, collagen 2 μg/mL, read-out: IC50 for platelet aggregation, Collagen.

A word on the IC50: it is the concentration needed to halve the response being measured. Usually melting point stands for the temperature, or range, at which the solid turns liquid.

With `COc1c(C)c(C)c(O)c2c1C(C)(C)C=C(CCCCBr)C2=O` [NBO4, 2-(4-bromobutyl)-8-hydroxy-5-methoxy-4,4,6,7-tetramethylnaphthalen-1(4H)-one], the IC50 in data set [1] (setting [8]) is greater than 20 µM; in data set [1] (setting [9]), greater than 20 µM; in data set [1] (setting [10]), greater than 20 µM; in data set [1] (setting [11]), 4.87 ± 1.15 µM.

On to `CCCCC1=CC(C)(C)c2c(O)c(C)c(C)c(O)c2C1=O` [NH4, 2-Butyl-5,8-dihydroxy-4,4,6,7-tetramethylnaphthalen-1(4H)-one], for which the “Cytosolic total ROS levels” value in data set [2] is listed as “neither NP4 nor NH4 significantly affected”. Further, the “Mitochondrial membrane potential (ΔΨm)” value in data set [3] is recorded as “significantly decrease”. The Intraplatelet calcium levels result in data set [4] was “increase it significantly”. In addition, the half-maximal inhibitory concentration (IC50) was greater than 20 µM in data set [1] (setting [8]), greater than 20 µM in data set [1] (setting [9]), greater than 20 µM in data set [1] (setting [10]) and 4.76 ± 0.7 µM in data set [1] (setting [11]). The “Bound fibrinogen platelet activation marker” value in data set [5] is “did not have significant effects”. Besides, the “CD63 platelet activation marker” value in data set [5] is recorded as “did not have significant effects”. In data set [5], the “PAC-1 (activated GPIIb/IIIa) platelet activation marker” value is reported as “did not have significant effects”.

Turning to `CCCCC1=CC(C)(C)c2c(OC)c(C)c(C)c(O)c2C1=O` [NHO4, 2-Butyl-8-hydroxy-5-methoxy-4,4,6,7-tetramethylnaphthalen-1(4H)-one], the IC50 in data set [1] (setting [8]) is greater than 20 µM; in data set [1] (setting [9]), greater than 20 µM; in data set [1] (setting [10]), greater than 20 µM; in data set [1] (setting [11]) it was 18.4 ± 5.26 µM.

Regarding `CCCC[P+](c1ccccc1)(c1ccccc1)c1ccccc1` [TPPBut, butyltriphenylphosphonium cation, reference compound], in data set [6], the “ATP-dep (OCRBasal – OCRATP-indep)” value is recorded as 5,68 ± 0,10, the “Activation (OCRCollagen – OCRBasal)” value is 0,59 ± 0,20, the “Coupling efficiency ((OCRBasal – OCRATP-indep)/OCRBasal)” value is 0,92 ± 0,01 and the “Spare (OCRMaximum – OCRBasal)” value is listed as 0,73 ± 0,27. Besides, the “Basal (OCR/10^6 platelets)” value in data set [6] (Seahorse Mito Stress Test) is on record as 6,21 ± 0,08 OCR/10^6 platelets. Moreover, the “Maximum (OCR/10^6 platelets)” value in data set [6] (after 1.4 μM FCCP) was 6,94 ± 0,19 OCR/10^6 platelets. In addition, the “Collagen (OCR/10^6 platelets)” value in data set [6] (after 3 μg/mL collagen) is listed as 6,80 ± 0,16 OCR/10^6 platelets. Moreover, the “Non-mito (OCR/10^6 platelets)” value in data set [6] (after antimycin A/rotenone) is on record as 0,01 ± 0,02 OCR/10^6 platelets. For the same compound, the “ATP-indep (OCR/10^6 platelets)” value in data set [6] (proton leak, after 2.5 μM oligomycin) is reported as 0,52 ± 0,05 OCR/10^6 platelets. For the same compound, the “Cytosolic total ROS levels” value in data set [2] was “did not show any effect”. Further, in data set [3], the “Mitochondrial membrane potential (ΔΨm)” value is recorded as “did not show any effect”. Moreover, the Intraplatelet calcium levels entry in data set [4] was “did not show any effect”. In addition, the IC50 in data set [1] (PMA 100 nM, read-out: IC50 for platelet aggregation, PMA) is greater than 20 µM. Moreover, the IC50 in data set [1] (TRAP-6 5 μM, read-out: IC50 for platelet aggregation, TRAP-6) was greater than 20 µM. Besides, the IC50 in data set [1] (arachidonic acid 250 μg/mL, read-out: IC50 for platelet aggregation, Arachidonic Acid) was greater than 20 µM. For the same compound, the IC50 in data set [1] (collagen 2 μg/mL, read-out: IC50 for platelet aggregation, Collagen) was 13.7 ± 2.27 µM. For the same compound, in data set [1] (convulxin 20 ng/mL, read-out: IC50 for platelet aggregation, Convulxin), the IC50 was greater than 20 µM. In addition, in data set [5], the “Bound fibrinogen platelet activation marker” value is listed as “did not show any effect”, the “CD63 platelet activation marker” value is reported as “did not show any effect”, the “P-selectin platelet activation marker” value is recorded as “did not show any effect” and the “PAC-1 (activated GPIIb/IIIa) platelet activation marker” value is on record as “did not show any effect”.

With `Cc1c(C)c(O)c2c(c1O)C(=O)C(CCCCBr)=CC2(C)C` [NB4, 2-(4-bromobutyl)-5,8-dihydroxy-4,4,6,7-tetramethylnaphthalen-1(4H)-one], the IC50 in data set [1] (setting [8]) was greater than 20 µM; in data set [1] (setting [9]) it was greater than 20 µM; in data set [1] (setting [10]) it was greater than 20 µM; in data set [1] (setting [11]), 15.3 ± 2.61 µM.

With `COc1c(C)c(C)c(O)c2c1C(C)(C)C=C(CCCC[P+](c1ccccc1)(c1ccccc1)c1ccccc1)C2=O.[Br-]` [NPO4, (4-(8-hydroxy-5-methoxy-4,4,6,7-tetramethyl-1-oxo-1,4-dihydronaphthalen-2-yl)butyl)triphenyl phosphonium bromide], the melting point was in the range of 91.5 to 93 °C. The “Cytotoxicity by LDH release (screening)” value in data set [7] is on record as “*NPO4 was excluded because showed high cytotoxicity”.
